Read-outs that look alike come from different tables or passages of the source.
Columns and labels:
Assay in all cases: stopped-flow CO2 hydration assay, phenol red
Format in all cases: biochemical
hCA IX [1] = target: T1, hCA IX (Homo sapiens, UniProt Q16790)
T1 construct: gene CA9; recombinant, obtained in-house; tumor-associated transmembrane isoform
Text: stopped-flow CO2 hydration assay, phenol red on hCA IX

hCA II [2] = target: T2, hCA II (Homo sapiens, UniProt P00918)
T2 construct: gene CA2; recombinant, obtained in-house; cytosolic
Text: stopped-flow CO2 hydration assay, phenol red on hCA II

hCA I = target: T3, hCA I (Homo sapiens, UniProt P00915)
T3 construct: gene CA1; recombinant, obtained in-house; cytosolic
Text: stopped-flow CO2 hydration assay, phenol red on hCA I

hCA IV [3] = target: T4, hCA IV (Homo sapiens, UniProt P22748); conditions: read-out: hCAI
T4 construct: gene CA4; recombinant, obtained in-house

hCA IV [4] = target: T4, hCA IV
Text: stopped-flow CO2 hydration assay, phenol red on hCA IV

hCA IX [5] = target: T1, hCA IX; conditions: read-out: hCAI
hCA II [6] = target: T2, hCA II; conditions: read-out: hCAI

T3 sequence (P00915 2-261): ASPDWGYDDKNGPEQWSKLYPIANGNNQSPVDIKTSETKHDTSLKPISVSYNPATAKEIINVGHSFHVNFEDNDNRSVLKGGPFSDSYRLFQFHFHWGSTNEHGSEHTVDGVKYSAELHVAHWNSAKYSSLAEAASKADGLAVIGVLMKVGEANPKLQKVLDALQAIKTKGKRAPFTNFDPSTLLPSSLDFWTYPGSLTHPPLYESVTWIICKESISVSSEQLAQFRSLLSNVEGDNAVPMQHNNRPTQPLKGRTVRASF
T4 sequence (P22748 19-284): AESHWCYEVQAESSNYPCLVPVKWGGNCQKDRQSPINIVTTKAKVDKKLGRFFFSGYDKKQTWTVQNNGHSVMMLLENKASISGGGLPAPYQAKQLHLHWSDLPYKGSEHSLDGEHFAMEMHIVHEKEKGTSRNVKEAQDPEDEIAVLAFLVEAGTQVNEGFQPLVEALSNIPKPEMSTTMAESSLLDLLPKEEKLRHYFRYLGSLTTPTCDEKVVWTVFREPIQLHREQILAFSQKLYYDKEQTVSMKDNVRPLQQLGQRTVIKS

C[C@H](CCC(=O)O)[C@H]1CC[C@H]2[C@@H]3[C@H](O)C[C@@H]4C[C@H](O)CC[C@]4(C)[C@H]3CC[C@]12C [compound 1, Chenodeoxycholic acid]
Ki (hCA IX [1]; read-out: hCA IX): 63 µM | Ki (hCA II [2]; read-out: hCA II): 53.9 µM | Ki (hCA I; read-out: hCAI): > 100 µM | Ki (hCA IV [3]): > 100 µM

C[C@H](CCC(=O)O)[C@H]1CC[C@H]2[C@@H]3[C@H](O)C[C@@H]4C[C@H](O)CC[C@]4(C)[C@H]3C[C@H](O)[C@]12C [compound 2, Cholic acid]
Ki (hCA IX [1]; read-out: hCA IX): 47.1 µM | Ki (hCA II [2]; read-out: hCA II): 48.9 µM | Ki (hCA I; read-out: hCAI): > 100 µM | Ki (hCA IV [3]): > 100 µM

C[C@H](CCC(=O)O)[C@H]1CC[C@H]2[C@@H]3CC[C@@H]4C[C@H](O)CC[C@]4(C)[C@H]3CC[C@]12C [compound 3, Lithocholic acid]
Ki (hCA IX [1]; read-out: hCA IX): 70.2 µM | Ki (hCA II [2]; read-out: hCA II): 64.5 µM | Ki (hCA I; read-out: hCAI): > 100 µM | Ki (hCA IV [3]): > 100 µM

C[C@H](CCC(=O)O)[C@H]1CC[C@H]2[C@@H]3CC[C@@H]4C[C@H](O)CC[C@]4(C)[C@H]3C[C@H](O)[C@]12C [compound 4, Deoxycholic acid]
Ki (hCA IX [1]; read-out: hCA IX): 55 µM | Ki (hCA II [2]; read-out: hCA II): 51 µM | Ki (hCA I; read-out: hCAI): > 100 µM | Ki (hCA IV [3]): > 100 µM

C[C@H](CCC(=O)O)[C@H]1CC[C@H]2[C@@H]3[C@@H](O)C[C@@H]4C[C@H](O)CC[C@]4(C)[C@H]3CC[C@]12C [compound 5, Ursodeoxycholic acid]
Ki (hCA IX [1]; read-out: hCA IX): 73.1 µM | Ki (hCA II [2]; read-out: hCA II): 71.4 µM | Ki (hCA IV [4]; read-out: hCA IV): > 100 µM | Ki (hCA I; read-out: hCAI): 95.9 µM

C[C@H](CCC(=O)NCC(=O)O)[C@H]1CC[C@H]2[C@@H]3[C@@H](O)C[C@@H]4C[C@H](O)CC[C@]4(C)[C@H]3CC[C@]12C [compound 6, Glycoursodeoxycholic acid]
Ki (hCA IX [1]; read-out: hCA IX): 89.9 µM | Ki (hCA II [2]; read-out: hCA II): 78.4 µM | Ki (hCA I; read-out: hCAI): > 100 µM | Ki (hCA IV [3]): > 100 µM

C[C@H](CCC(=O)NCCS(=O)(=O)O)[C@H]1CC[C@H]2[C@@H]3[C@@H](O)C[C@@H]4C[C@H](O)CC[C@]4(C)[C@H]3CC[C@]12C [compound 7, Tauroursodeoxycholic acid]
Ki (hCA IX [1]; read-out: hCA IX): 42.9 µM | Ki (hCA II [2]; read-out: hCA II): 82.9 µM | Ki (hCA I; read-out: hCAI): > 100 µM | Ki (hCA IV [3]): > 100 µM

C[C@H](CCC(=O)O)[C@H]1CC[C@H]2[C@@H]3C[C@H](O)[C@@H]4C[C@H](O)CC[C@]4(C)[C@H]3CC[C@]12C [compound 8, Hyodeoxycholic acid]
Ki (hCA IX [1]; read-out: hCA IX): 67.7 µM | Ki (hCA II [2]; read-out: hCA II): 58.4 µM | Ki (hCA I; read-out: hCAI): > 100 µM | Ki (hCA IV [3]): > 100 µM

C[C@H](CCC(=O)O)[C@H]1CC[C@H]2[C@@H]3[C@H](O)[C@H](O)[C@@H]4C[C@H](O)CC[C@]4(C)[C@H]3CC[C@]12C [compound 9, Hyocholic acid]
Ki (hCA IX [1]; read-out: hCA IX): 71.9 µM | Ki (hCA II [2]; read-out: hCA II): 38.9 µM | Ki (hCA IV [4]; read-out: hCA IV): > 100 µM | Ki (hCA I; read-out: hCAI): 83.3 µM

C[C@H](CCC(=O)O)[C@H]1CC[C@H]2[C@@H]3C(=O)C[C@@H]4CC(=O)CC[C@]4(C)[C@H]3CC(=O)[C@]12C [compound 10, Dehydrocholic acid]
Ki (hCA IX [1]; read-out: hCA IX): 53.9 µM | Ki (hCA II [2]; read-out: hCA II): 57.8 µM | Ki (hCA I; read-out: hCAI): > 100 µM | Ki (hCA IV [3]): > 100 µM

CC(C)CCC[C@@H](C)[C@H]1CC[C@H]2[C@@H]3CC=C4C[C@@H](O)CC[C@]4(C)[C@H]3CC[C@]12C [compound 11, Cholesterol]
Ki (hCA IX [5]): > 100 µM | Ki (hCA II [6]): > 100 µM | Ki (hCA I; read-out: hCAI): > 100 µM | Ki (hCA IV [3]): > 100 µM

CC(C)CCC[C@@H](C)[C@H]1CC[C@H]2[C@@H]3CC[C@@H]4C[C@@H](O)CC[C@]4(C)[C@H]3CC[C@]12C [compound 12, Coprostan-3-ol]
Ki (hCA IX [5]): > 100 µM | Ki (hCA II [6]): > 100 µM | Ki (hCA I; read-out: hCAI): > 100 µM | Ki (hCA IV [3]): > 100 µM

C[C@]12CC[C@H]3[C@@H](CCC4=CC(=O)CC[C@@]43C)[C@@H]1CC[C@@H]2O [compound 13, Testosterone]
Ki (hCA IX [1]): > 100 µM | Ki (hCA II [2]): > 100 µM | Ki (hCA IV [4]): > 100 µM | Ki (hCA I): > 100 µM

C[C@]12CC[C@@H](O)C[C@@H]1CC[C@@H]1[C@@H]2CC[C@]2(C)C(=O)CC[C@@H]12 [compound 14, Androsterone]
Ki (hCA IX [1]): > 100 µM | Ki (hCA II [2]): > 100 µM | Ki (hCA IV [4]): > 100 µM | Ki (hCA I): > 100 µM

C[C@]12CC[C@H](O)CC1=CC[C@@H]1[C@@H]2CC[C@]2(C)C(=O)CC[C@@H]12 [compound 15, Trans-dehydroandrosterone]
Ki (hCA IX [5]): > 100 µM | Ki (hCA II [6]): > 100 µM | Ki (hCA I; read-out: hCAI): > 100 µM | Ki (hCA IV [3]): > 100 µM

C[C@]12CCC(=O)C[C@@H]1CC[C@@H]1[C@@H]2CC[C@]2(C)[C@@H](O)CC[C@@H]12 [compound 16, Androstanolone]
Ki (hCA IX [1]): > 100 µM | Ki (hCA II [2]): > 100 µM | Ki (hCA IV [4]): > 100 µM | Ki (hCA I): > 100 µM

CC(=O)[C@H]1CC[C@H]2[C@@H]3CCC4=CC(=O)CC[C@]4(C)[C@H]3CC[C@]12C [compound 17, Progesterone]
Ki (hCA IX [5]): > 100 µM | Ki (hCA II [6]): > 100 µM | Ki (hCA I; read-out: hCAI): > 100 µM | Ki (hCA IV [3]): > 100 µM

CC(=O)[C@H]1CC[C@H]2[C@@H]3CCC4=CC(=O)CC[C@]4(C)[C@H]3[C@H](O)C[C@]12C [compound 18, 11α-Hydroxyprogesterone]
Ki (hCA IX [5]): > 100 µM | Ki (hCA II [6]): > 100 µM | Ki (hCA I; read-out: hCAI): > 100 µM | Ki (hCA IV [3]): > 100 µM

C[C@]12CC[C@@H]3c4ccc(O)cc4CC[C@H]3[C@@H]1CC[C@H]2O [compound 19, α-Estradiol]
Ki (hCA IX [1]; read-out: hCA IX): 49.6 µM | Ki (hCA II [2]; read-out: hCA II): 40.4 µM | Ki (hCA IV [4]; read-out: hCA IV): > 100 µM | Ki (hCA I; read-out: hCAI): 87.8 µM

C[C@]12CC[C@@H]3c4ccc(O)cc4CC[C@H]3[C@@H]1CCC2=O [compound 20, Estron]
Ki (hCA IX [1]; read-out: hCA IX): 71.4 µM | Ki (hCA II [2]; read-out: hCA II): 50.8 µM | Ki (hCA I; read-out: hCAI): > 100 µM | Ki (hCA IV [3]): > 100 µM

C[C@]12CCC(=O)C=C1CC[C@@H]1[C@@H]2[C@@H](O)C[C@@]2(C)[C@H]1CC[C@]2(O)C(=O)CO [compound 21, Hydrocortisone]
Ki (hCA IX [5]): > 100 µM | Ki (hCA II [6]): > 100 µM | Ki (hCA I; read-out: hCAI): > 100 µM | Ki (hCA IV [3]): > 100 µM

C[C@@H]1CC[C@@]2(OC1)O[C@H]1C[C@H]3[C@@H]4CC=C5C[C@@H](O)CC[C@]5(C)[C@H]4CC[C@]3(C)[C@H]1[C@@H]2C [compound 22, Diosgenin]
Ki (hCA IX [5]): > 100 µM | Ki (hCA II [6]): > 100 µM | Ki (hCA I; read-out: hCAI): > 100 µM | Ki (hCA IV [3]): > 100 µM
